In PMC12136037, “Type II kinase inhibitors that target Parkinson’s disease–associated LRRK2” (Science Advances, 2025):

Tests used:
Assay in all cases: DSF 100 kinase selectivity screen;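 note: compound tested at 20 µM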
Format in all cases: binding
[1] = molecular target: T1, ~100 representative kinases (Homo sapiens, UniProt O14733); settings: protein MAP2K7; average of three replicates
T1 construct: Recombinant protein kinase domains with a concentration of 2 μM
T1 sequence (O14733 1-419): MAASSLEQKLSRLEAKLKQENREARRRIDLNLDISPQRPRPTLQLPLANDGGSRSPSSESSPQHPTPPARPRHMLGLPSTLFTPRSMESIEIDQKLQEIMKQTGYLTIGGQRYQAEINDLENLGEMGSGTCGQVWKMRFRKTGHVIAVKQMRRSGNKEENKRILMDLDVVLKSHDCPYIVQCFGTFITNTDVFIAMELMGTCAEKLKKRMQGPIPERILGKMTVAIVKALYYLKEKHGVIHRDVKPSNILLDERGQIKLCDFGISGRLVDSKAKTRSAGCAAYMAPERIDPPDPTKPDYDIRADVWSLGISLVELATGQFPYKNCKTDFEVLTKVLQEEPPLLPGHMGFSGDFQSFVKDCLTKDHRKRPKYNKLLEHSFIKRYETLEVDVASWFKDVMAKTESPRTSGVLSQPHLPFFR
Procedure, shortened: (§1)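 Each kinase domain, at 2 μM, is mixed with 20 μM test compound and SYPRO Orange in Hepes (20 mM, pH 7.5) with 500 mM NaCl. Temperature is then raised at 3°C/min and fluorescence-monitored unfolding yields the melting temperature change, ΔTm in degrees Celsius.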

[2] = molecular target: T2, ~100 representative kinases (Homo sapiens, UniProt O75582); settings: Protein RPS6KA5; DSF; average of three replicates
T2 construct: Recombinant protein kinase domains with a concentration of 2 μM
T2 sequence (O75582 whole entry, the tested form may be a part): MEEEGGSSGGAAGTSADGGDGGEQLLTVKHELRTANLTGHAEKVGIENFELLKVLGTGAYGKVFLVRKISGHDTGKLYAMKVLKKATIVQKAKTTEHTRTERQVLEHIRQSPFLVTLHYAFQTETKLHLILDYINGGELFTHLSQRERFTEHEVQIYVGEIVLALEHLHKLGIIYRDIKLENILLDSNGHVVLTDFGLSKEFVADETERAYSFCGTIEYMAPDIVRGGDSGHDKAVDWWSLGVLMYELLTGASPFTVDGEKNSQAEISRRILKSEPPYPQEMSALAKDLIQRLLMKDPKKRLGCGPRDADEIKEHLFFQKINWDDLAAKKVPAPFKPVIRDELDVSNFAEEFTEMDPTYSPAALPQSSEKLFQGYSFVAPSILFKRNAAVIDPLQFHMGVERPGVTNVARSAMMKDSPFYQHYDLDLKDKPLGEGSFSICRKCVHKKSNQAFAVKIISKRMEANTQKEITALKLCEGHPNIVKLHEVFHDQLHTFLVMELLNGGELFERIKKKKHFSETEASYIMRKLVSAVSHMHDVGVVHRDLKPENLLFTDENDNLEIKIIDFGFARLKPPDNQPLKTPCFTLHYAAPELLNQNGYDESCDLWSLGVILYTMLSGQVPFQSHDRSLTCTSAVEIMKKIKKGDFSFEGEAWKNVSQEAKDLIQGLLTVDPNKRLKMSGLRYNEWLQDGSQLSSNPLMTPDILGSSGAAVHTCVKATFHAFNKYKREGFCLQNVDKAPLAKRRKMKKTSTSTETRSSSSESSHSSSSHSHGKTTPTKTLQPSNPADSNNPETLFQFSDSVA
Procedure, shortened: as §1

[3] = molecular target: T3, ~100 representative kinases (Homo sapiens, UniProt P15735); settings: protein PHKG2; average of three replicates
T3 construct: Recombinant protein kinase domains with a concentration of 2 μM
T3 sequence (P15735 1-406): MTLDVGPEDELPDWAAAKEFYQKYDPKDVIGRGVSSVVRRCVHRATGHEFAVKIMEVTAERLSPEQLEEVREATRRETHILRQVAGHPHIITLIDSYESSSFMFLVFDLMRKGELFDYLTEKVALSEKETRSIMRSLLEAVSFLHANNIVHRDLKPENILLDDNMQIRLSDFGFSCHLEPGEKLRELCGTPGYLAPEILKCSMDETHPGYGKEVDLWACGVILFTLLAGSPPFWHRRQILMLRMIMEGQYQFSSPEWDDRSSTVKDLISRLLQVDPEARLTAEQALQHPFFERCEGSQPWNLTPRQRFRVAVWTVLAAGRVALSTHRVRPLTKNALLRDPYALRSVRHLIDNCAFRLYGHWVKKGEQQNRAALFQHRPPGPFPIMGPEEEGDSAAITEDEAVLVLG
Procedure, shortened: as §1

[4] = molecular target: T4, ~100 representative kinases (Homo sapiens, UniProt P29317); settings: Protein EPHA2; average of three replicates
T4 construct: Recombinant protein kinase domains with a concentration of 2 μM
T4 sequence (P29317 24-976): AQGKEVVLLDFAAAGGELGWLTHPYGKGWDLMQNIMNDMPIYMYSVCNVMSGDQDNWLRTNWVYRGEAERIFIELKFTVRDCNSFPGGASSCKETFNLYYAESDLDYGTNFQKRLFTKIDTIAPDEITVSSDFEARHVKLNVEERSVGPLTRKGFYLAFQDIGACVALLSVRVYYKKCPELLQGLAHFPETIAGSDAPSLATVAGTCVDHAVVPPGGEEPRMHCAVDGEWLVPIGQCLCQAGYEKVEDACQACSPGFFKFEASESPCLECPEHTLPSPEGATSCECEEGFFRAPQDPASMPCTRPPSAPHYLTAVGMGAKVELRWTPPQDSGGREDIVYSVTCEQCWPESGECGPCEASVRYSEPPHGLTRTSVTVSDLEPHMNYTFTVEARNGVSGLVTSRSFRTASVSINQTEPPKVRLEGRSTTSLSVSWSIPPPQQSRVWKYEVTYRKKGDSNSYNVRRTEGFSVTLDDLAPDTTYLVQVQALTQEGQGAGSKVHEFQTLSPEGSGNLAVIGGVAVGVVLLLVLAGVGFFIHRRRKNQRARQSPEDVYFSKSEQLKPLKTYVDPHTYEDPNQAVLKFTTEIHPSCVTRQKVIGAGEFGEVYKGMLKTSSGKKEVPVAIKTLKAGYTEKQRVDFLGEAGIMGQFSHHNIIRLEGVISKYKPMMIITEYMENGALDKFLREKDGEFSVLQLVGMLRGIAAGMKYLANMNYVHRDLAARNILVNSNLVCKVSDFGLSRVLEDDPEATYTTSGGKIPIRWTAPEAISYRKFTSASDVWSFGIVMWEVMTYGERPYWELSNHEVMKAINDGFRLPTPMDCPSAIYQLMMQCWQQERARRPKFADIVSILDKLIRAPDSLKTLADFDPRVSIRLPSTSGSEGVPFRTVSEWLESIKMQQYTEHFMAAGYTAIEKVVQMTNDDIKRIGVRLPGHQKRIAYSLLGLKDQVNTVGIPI
Procedure, shortened: as §1

[5] = molecular target: T5, ~100 representative kinases (Homo sapiens, UniProt P45983); settings: protein MAPK8; average of three replicates
T5 construct: Recombinant protein kinase domains with a concentration of 2 μM
Procedure, shortened: as §1

[6] = molecular target: T6, ~100 representative kinases (Homo sapiens, UniProt P52564); settings: protein MAP2K6; average of three replicates
T6 construct: Recombinant protein kinase domains with a concentration of 2 μM
T6 sequence (P52564 1-334): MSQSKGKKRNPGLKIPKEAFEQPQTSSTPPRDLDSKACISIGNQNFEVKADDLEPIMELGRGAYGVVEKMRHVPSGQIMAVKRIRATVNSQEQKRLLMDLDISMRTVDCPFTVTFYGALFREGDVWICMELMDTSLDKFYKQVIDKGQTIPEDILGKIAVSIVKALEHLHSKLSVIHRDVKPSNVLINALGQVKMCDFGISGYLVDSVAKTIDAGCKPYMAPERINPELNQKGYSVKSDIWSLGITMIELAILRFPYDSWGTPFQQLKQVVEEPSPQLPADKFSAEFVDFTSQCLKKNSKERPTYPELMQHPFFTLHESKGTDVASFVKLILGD
Procedure, shortened: as §1

[7] = molecular target: T7, ~100 representative kinases (Homo sapiens, UniProt P53779); settings: protein MAPK10; average of three replicates
T7 construct: Recombinant protein kinase domains with a concentration of 2 μM
T7 sequence (P53779 whole entry, the tested form may be a part): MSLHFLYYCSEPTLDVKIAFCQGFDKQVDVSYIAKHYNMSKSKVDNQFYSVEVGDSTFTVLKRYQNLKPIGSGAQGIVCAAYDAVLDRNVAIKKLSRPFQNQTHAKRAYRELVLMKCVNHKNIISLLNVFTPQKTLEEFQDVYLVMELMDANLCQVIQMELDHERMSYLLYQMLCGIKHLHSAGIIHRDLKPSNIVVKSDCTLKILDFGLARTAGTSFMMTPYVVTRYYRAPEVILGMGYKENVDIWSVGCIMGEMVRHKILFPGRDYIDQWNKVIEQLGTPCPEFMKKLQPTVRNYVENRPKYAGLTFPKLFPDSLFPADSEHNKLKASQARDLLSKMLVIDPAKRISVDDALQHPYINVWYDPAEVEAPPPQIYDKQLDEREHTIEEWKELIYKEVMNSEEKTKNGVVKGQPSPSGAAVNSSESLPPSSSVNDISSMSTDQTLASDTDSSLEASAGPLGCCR
Procedure, shortened: as §1

[8] = molecular target: T8, ~100 representative kinases (Homo sapiens, UniProt Q96RR4); settings: Protein CAMKK2; average of three replicates
T8 construct: Recombinant protein kinase domains with a concentration of 2 μM
T8 sequence (Q96RR4 whole entry, the tested form may be a part): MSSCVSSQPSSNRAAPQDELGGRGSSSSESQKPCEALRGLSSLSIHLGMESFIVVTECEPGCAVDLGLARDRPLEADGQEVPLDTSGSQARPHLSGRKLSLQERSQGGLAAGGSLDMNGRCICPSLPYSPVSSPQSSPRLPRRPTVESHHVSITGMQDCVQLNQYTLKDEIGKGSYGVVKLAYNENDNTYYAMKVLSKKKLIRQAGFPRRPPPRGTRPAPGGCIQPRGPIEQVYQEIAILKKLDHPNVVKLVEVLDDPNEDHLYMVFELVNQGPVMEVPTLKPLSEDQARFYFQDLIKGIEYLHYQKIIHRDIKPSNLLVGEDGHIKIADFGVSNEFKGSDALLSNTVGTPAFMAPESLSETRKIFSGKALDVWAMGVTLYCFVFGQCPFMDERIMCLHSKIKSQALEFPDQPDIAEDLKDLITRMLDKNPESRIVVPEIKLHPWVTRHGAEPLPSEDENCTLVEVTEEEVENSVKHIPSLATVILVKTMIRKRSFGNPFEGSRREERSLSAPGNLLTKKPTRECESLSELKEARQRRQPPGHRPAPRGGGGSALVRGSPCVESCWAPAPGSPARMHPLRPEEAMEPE
Procedure, shortened: as §1

[9] = molecular target: T9, ~100 representative kinases (Homo sapiens, UniProt Q9NSY1); settings: Protein BMP2K; average of three replicates
T9 construct: Recombinant protein kinase domains with a concentration of 2 μM
T9 sequence (Q9NSY1 whole entry, the tested form may be a part): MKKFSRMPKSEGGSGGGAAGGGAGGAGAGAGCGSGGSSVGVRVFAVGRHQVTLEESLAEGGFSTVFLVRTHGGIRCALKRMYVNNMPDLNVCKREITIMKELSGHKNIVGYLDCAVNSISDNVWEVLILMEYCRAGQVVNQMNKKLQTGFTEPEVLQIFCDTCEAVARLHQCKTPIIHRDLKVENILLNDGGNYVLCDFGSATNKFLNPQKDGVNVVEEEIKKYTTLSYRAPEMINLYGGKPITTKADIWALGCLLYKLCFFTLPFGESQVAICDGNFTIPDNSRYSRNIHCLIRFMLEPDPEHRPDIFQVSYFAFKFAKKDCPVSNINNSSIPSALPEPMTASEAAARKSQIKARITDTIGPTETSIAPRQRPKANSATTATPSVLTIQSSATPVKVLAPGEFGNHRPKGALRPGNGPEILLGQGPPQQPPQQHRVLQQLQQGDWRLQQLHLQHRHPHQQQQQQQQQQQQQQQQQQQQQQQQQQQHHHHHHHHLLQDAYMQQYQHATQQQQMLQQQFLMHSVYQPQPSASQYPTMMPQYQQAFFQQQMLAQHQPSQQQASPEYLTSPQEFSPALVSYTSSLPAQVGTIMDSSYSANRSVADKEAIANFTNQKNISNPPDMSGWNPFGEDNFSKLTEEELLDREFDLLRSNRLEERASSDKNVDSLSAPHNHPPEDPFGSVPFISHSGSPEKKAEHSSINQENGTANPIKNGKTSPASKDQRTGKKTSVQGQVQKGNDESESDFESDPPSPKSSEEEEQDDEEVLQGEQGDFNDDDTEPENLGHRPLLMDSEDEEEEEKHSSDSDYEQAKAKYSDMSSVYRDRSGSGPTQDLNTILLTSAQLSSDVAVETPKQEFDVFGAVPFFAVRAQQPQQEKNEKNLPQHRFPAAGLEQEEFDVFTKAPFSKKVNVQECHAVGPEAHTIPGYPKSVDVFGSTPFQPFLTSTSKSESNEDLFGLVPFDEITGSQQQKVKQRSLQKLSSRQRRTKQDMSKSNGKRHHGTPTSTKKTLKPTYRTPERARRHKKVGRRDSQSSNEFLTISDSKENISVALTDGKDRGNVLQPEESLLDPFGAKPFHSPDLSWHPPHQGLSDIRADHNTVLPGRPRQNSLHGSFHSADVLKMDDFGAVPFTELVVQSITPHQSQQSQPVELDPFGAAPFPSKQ
Procedure, shortened: as §1

[10] = molecular target: T10, ~100 representative kinases (Homo sapiens, UniProt Q9P289); settings: protein MST4; average of three replicates
T10 construct: Recombinant protein kinase domains with a concentration of 2 μM
T10 sequence (Q9P289 whole entry, the tested form may be a part): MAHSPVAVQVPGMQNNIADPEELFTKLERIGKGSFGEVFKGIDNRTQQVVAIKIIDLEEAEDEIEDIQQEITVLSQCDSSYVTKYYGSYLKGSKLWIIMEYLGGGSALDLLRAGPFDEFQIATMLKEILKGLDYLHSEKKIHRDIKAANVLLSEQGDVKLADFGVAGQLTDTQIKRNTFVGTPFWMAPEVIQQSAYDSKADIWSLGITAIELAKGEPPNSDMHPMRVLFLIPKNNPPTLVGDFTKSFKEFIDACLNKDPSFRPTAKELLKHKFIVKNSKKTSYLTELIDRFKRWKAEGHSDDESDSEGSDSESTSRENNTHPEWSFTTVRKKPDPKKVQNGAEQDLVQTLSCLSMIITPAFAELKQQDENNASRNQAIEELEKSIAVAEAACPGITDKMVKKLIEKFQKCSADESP
Procedure, shortened: as §1

[11] = molecular target: T11, ~100 representative kinases (Homo sapiens, UniProt Q9Y2H1); settings: Protein STK38L; DSF; average of three replicates
T11 construct: Recombinant protein kinase domains with a concentration of 2 μM
Procedure, shortened: as §1

[12] = molecular target: T12, ~100 representative kinases (Homo sapiens, UniProt Q9Y6E0); settings: protein MST3; average of three replicates
T12 construct: Recombinant protein kinase domains with a concentration of 2 μM
T12 sequence (Q9Y6E0 whole entry, the tested form may be a part): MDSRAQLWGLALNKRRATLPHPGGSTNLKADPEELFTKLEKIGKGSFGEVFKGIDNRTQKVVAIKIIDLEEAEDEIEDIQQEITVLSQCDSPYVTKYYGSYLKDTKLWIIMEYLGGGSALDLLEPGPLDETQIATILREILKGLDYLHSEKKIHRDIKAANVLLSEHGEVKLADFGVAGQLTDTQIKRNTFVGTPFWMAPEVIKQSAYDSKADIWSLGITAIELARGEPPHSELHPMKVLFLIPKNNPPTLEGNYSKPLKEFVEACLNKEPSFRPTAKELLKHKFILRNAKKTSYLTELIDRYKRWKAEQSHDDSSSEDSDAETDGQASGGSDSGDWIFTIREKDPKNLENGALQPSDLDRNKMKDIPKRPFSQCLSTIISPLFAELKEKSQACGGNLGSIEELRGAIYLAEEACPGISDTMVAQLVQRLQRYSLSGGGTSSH
Procedure, shortened: as §1

Compound: Cc1ccc(NC(=O)C2(C(=O)Nc3cccc(-c4c[nH]c5ncnc(N6CCOCC6)c45)c3)CC2)cc1 [Compound 14]
- dTm [1]: 2.82 K
- dTm [2]: 3.04 K
- dTm [3]: 0.65 K
- dTm [4]: 7.05 K
- dTm [5]: 0.90 K
- dTm [6]: 1.56 K
- dTm [7]: -1.31 K
- dTm [8]: 4.94 K
- dTm [9]: 5.95 K
- dTm [10]: 3.59 K
- dTm [11]: 0.07 K
- dTm [12]: 4.56 K

Compound: CCc1ccc(NC(=O)C2(C(=O)Nc3cccc(-c4c[nH]c5ncnc(N6CCOCC6)c45)c3)CC2)cc1 [Compound 15]
- dTm [1]: 3.12 K
- dTm [2]: 2.22 K
- dTm [3]: 0.76 K
- dTm [4]: 4.88 K
- dTm [5]: 1.56 K
- dTm [6]: 2.06 K
- dTm [7]: -0.66 K
- dTm [8]: 5.52 K
- dTm [9]: 4.66 K
- dTm [10]: 2.78 K
- dTm [11]: 0.73 K
- dTm [12]: 2.23 K

Compound: COc1ccc(NC(=O)C2(C(=O)Nc3cccc(-c4c[nH]c5ncnc(N6CCOCC6)c45)c3)CC2)cc1 [Compound 16]
- dTm [1]: 0.55 K
- dTm [2]: 0.21 K
- dTm [3]: -0.08 K
- dTm [4]: 1.72 K
- dTm [5]: 0.26 K
- dTm [6]: 0.82 K
- dTm [7]: 0.65 K
- dTm [8]: 1.74 K
- dTm [9]: 4.89 K
- dTm [10]: 1.30 K
- dTm [11]: -0.19 K
- dTm [12]: 1.58 K

Compound: O=C(Nc1cccc(-c2c[nH]c3ncnc(N4CCOCC4)c23)c1)C1(C(=O)Nc2ccc(F)c(F)c2)CC1 [Compound 17]
- dTm [1]: 4.27 K
- dTm [2]: 6.14 K
- dTm [3]: 2.57 K
- dTm [4]: 4.47 K
- dTm [5]: 2.52 K
- dTm [6]: 2.36 K
- dTm [7]: 1.84 K
- dTm [8]: 6.90 K
- dTm [9]: 7.72 K
- dTm [10]: 6.01 K
- dTm [11]: 0.13 K
- dTm [12]: 6.82 K

Compound: O=C(Nc1cccc(-c2c[nH]c3ncnc(N4CCOCC4)c23)c1)C1(C(=O)Nc2ccc(F)c(Cl)c2)CC1 [Compound 18]
- dTm [1]: 5.35 K
- dTm [2]: -1.56 K
- dTm [3]: 3.01 K
- dTm [4]: 4.93 K
- dTm [5]: 3.23 K
- dTm [6]: 2.96 K
- dTm [7]: 3.57 K
- dTm [8]: 9.58 K
- dTm [9]: 8.58 K
- dTm [10]: 6.98 K
- dTm [11]: 0.59 K
- dTm [12]: 6.96 K

Compound: O=C(Nc1cccc(-c2c[nH]c3ncnc(N4CCOCC4)c23)c1)C1(C(=O)Nc2ccc(F)c(Br)c2)CC1 [Compound 19]
- dTm [1]: 4.93 K
- dTm [2]: 6.08 K
- dTm [3]: 1.52 K
- dTm [4]: 4.87 K
- dTm [5]: 3.53 K
- dTm [6]: 3.38 K
- dTm [7]: 4.40 K
- dTm [8]: 9.18 K
- dTm [9]: 8.80 K
- dTm [10]: 6.31 K
- dTm [11]: 0.00 K
- dTm [12]: 3.29 K

Compound: Cc1cc(NC(=O)C2(C(=O)Nc3cccc(-c4c[nH]c5ncnc(N6CCOCC6)c45)c3)CC2)ccc1F [Compound 20]
- dTm [1]: 5.31 K
- dTm [2]: 7.70 K
- dTm [3]: 2.79 K
- dTm [4]: 6.64 K
- dTm [5]: 3.09 K
- dTm [6]: 3.64 K
- dTm [7]: 0.56 K
- dTm [8]: 10.45 K
- dTm [9]: 8.74 K
- dTm [10]: 7.93 K
- dTm [11]: 0.36 K
- dTm [12]: 8.98 K

Compound: COc1cc(NC(=O)C2(C(=O)Nc3cccc(-c4c[nH]c5ncnc(N6CCOCC6)c45)c3)CC2)ccc1F [Compound 21]
- dTm [1]: 4.61 K
- dTm [2]: 4.31 K
- dTm [3]: 0.25 K
- dTm [4]: 2.31 K
- dTm [5]: 1.81 K
- dTm [6]: 3.07 K
- dTm [7]: 0.29 K
- dTm [8]: 8.27 K
- dTm [9]: 6.71 K
- dTm [10]: 6.10 K
- dTm [11]: -0.18 K
- dTm [12]: 6.57 K

Compound: CC(C)(C)c1cccc(NC(=O)C2(C(=O)Nc3cccc(-c4c[nH]c5ncnc(N6CCOCC6)c45)c3)CC2)c1 [Compound 22]
- dTm [1]: 3.77 K
- dTm [2]: 1.50 K
- dTm [3]: -0.10 K
- dTm [4]: 3.30 K
- dTm [5]: 3.75 K
- dTm [6]: 1.77 K
- dTm [7]: 1.37 K
- dTm [8]: 9.68 K
- dTm [9]: 4.67 K
- dTm [10]: 4.41 K
- dTm [11]: -2.35 K
- dTm [12]: 0.95 K

Compound: O=C(Nc1cccc(-c2c[nH]c3ncnc(N4CCOCC4)c23)c1)C1(C(=O)Nc2ccc(F)cc2F)CC1 [Compound 23]
- dTm [1]: 3.10 K
- dTm [2]: 0.48 K
- dTm [3]: 0.21 K
- dTm [4]: 4.60 K
- dTm [5]: 1.59 K
- dTm [6]: 1.78 K
- dTm [7]: -0.75 K
- dTm [8]: 5.31 K
- dTm [9]: 7.18 K
- dTm [10]: 3.92 K
- dTm [11]: 0.0847 K
- dTm [12]: 5.25 K

Compound: Cc1cc(F)ccc1NC(=O)C1(C(=O)Nc2cccc(-c3c[nH]c4ncnc(N5CCOCC5)c34)c2)CC1 [Compound 24]
- dTm [1]: 3.14 K
- dTm [2]: -1.10 K
- dTm [3]: -0.00698 K
- dTm [4]: 3.46 K
- dTm [5]: 2.35 K
- dTm [6]: 3.14 K
- dTm [7]: -0.11 K
- dTm [8]: 6.43 K
- dTm [9]: 6.47 K
- dTm [10]: 2.44 K
- dTm [11]: -0.0467 K
- dTm [12]: 3.82 K

Compound: O=C(Nc1cccc(-c2c[nH]c3ncnc(N4CCOCC4)c23)c1)C1(C(=O)Nc2cc(Br)c(F)cc2F)CC1 [Compound 25]
- dTm [1]: 3.02 K
- dTm [2]: 0.35 K
- dTm [3]: 0.58 K
- dTm [4]: 1.14 K
- dTm [5]: 0.77 K
- dTm [6]: 3.34 K
- dTm [7]: 3.64 K
- dTm [8]: 6.31 K
- dTm [9]: 6.63 K
- dTm [10]: 1.80 K
- dTm [11]: 0.00 K
- dTm [12]: 0.83 K

Compound: O=C(Nc1cccc(-c2c[nH]c3ncnc(N4CCOCC4)c23)c1)C1(C(=O)Nc2ccc(F)c(Br)c2F)CC1 [Compound 26]
- dTm [1]: 3.31 K
- dTm [2]: -0.55 K
- dTm [3]: 0.60 K
- dTm [4]: 2.30 K
- dTm [5]: 2.06 K
- dTm [6]: 2.03 K
- dTm [7]: 5.85 K
- dTm [8]: 5.53 K
- dTm [9]: 9.57 K
- dTm [10]: 1.39 K
- dTm [11]: -2.16 K
- dTm [12]: 3.50 K

Compound: O=C(Nc1cc(F)cc(Br)c1)C1(C(=O)Nc2cccc(-c3c[nH]c4ncnc(N5CCOCC5)c34)c2)CC1 [Compound 27]
- dTm [1]: 3.41 K
- dTm [2]: 0.67 K
- dTm [3]: 0.85 K
- dTm [4]: 0.41 K
- dTm [5]: 1.19 K
- dTm [6]: 2.66 K
- dTm [7]: 5.93 K
- dTm [8]: 3.64 K
- dTm [9]: 5.45 K
- dTm [10]: 3.14 K
- dTm [11]: -0.80 K
- dTm [12]: 3.03 K
